Legend:
[1] = tested on: Monocotyledonous and dicotyledonous test plants; experiment: Example B1 herbicidal action, application pre-emergence (Table B1b); format: in vivo; conditions: 250 g/ha, evaluated after 4 weeks
Summary of the method: (§1)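 Visual damage rating, 10 = plant dead and 0 = unharmed, taken at 3 weeks for post-emergence and 4 weeks for pre-emergence treatment. Application by spray of formulated aqueous solution either immediately after sowing or at 8–9 days' growth, with mono- and dicot plants kept in a greenhouse.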

[2] = tested on: Monocotyledonous and dicotyledonous test plants; experiment: Example B1 herbicidal action, application post-emergence (Table B1a); format: in vivo; conditions: 250 g/ha, evaluated after 3 weeks, scale 0-10
Summary of the method: as §1

## Cn1nc(C(F)(F)F)c(C(F)(F)S(=O)(=O)C2=NOC(C)(C)C2)c1OCC(F)(F)F [2.01]
[1]
  herbicidal action (damage rating 0-10), Amaranthus: 10
  herbicidal action (damage rating 0-10), Digitaria: 10
  herbicidal action (damage rating 0-10), Panicum: 10
  herbicidal action (damage rating 0-10), Setaria: 10
  herbicidal action (damage rating 0-10), Sida: 9
[2]
  herbicidal damage rating, Abutilon: 8
  herbicidal damage rating, Amaranthus: 5
  herbicidal damage rating, Digitaria: 7
  herbicidal damage rating, Panicum: 5
  herbicidal damage rating, Setaria: 5
  herbicidal damage rating, Sida: 6

## Cn1nc(C(F)(F)F)c(C(F)(F)S(=O)(=O)C2=NOC(C)(C)C2)c1Cl [2.03]
[1]
  herbicidal action (damage rating 0-10), Amaranthus: 10
  herbicidal action (damage rating 0-10), Digitaria: 10
  herbicidal action (damage rating 0-10), Panicum: 10
  herbicidal action (damage rating 0-10), Setaria: 10
  herbicidal action (damage rating 0-10), Sida: 8
[2]
  herbicidal damage rating, Abutilon: 7
  herbicidal damage rating, Amaranthus: 0
  herbicidal damage rating, Digitaria: 7
  herbicidal damage rating, Panicum: 7
  herbicidal damage rating, Setaria: 7
  herbicidal damage rating, Sida: 6

## Cn1nc(C(F)(F)F)c(C(Cl)S(=O)(=O)C2=NOC(C)(C)C2)c1Cl (centres unmarked) [2.05]
[1]
  herbicidal action (damage rating 0-10), Amaranthus: 5
  herbicidal action (damage rating 0-10), Digitaria: 9
  herbicidal action (damage rating 0-10), Panicum: 10
  herbicidal action (damage rating 0-10), Setaria: 10
  herbicidal action (damage rating 0-10), Sida: 8
[2]
  herbicidal damage rating, Abutilon: 4
  herbicidal damage rating, Amaranthus: 0
  herbicidal damage rating, Digitaria: 3
  herbicidal damage rating, Panicum: 7
  herbicidal damage rating, Setaria: 0
  herbicidal damage rating, Sida: 3

## Cn1nc(C(F)(F)F)c(C(Br)(Br)S(=O)(=O)C2=NOC(C)(C)C2)c1OCC(F)(F)F [2.09]
[1]
  herbicidal action (damage rating 0-10), Amaranthus: 10
  herbicidal action (damage rating 0-10), Digitaria: 10
  herbicidal action (damage rating 0-10), Panicum: 10
  herbicidal action (damage rating 0-10), Setaria: 10
  herbicidal action (damage rating 0-10), Sida: 8
[2]
  herbicidal damage rating, Abutilon: 7
  herbicidal damage rating, Amaranthus: 7
  herbicidal damage rating, Digitaria: 8
  herbicidal damage rating, Panicum: 8
  herbicidal damage rating, Setaria: 7
  herbicidal damage rating, Sida: 2

## Cn1nc(C(F)(F)F)c(C(F)(F)S(=O)(=O)C2=NOC(C)(C)C2)c1OC(F)F [2.11]
[1]
  herbicidal action (damage rating 0-10), Amaranthus: 10
  herbicidal action (damage rating 0-10), Digitaria: 10
  herbicidal action (damage rating 0-10), Panicum: 10
  herbicidal action (damage rating 0-10), Setaria: 10
  herbicidal action (damage rating 0-10), Sida: 9
[2]
  herbicidal damage rating, Abutilon: 7
  herbicidal damage rating, Amaranthus: 5
  herbicidal damage rating, Digitaria: 7
  herbicidal damage rating, Panicum: 7
  herbicidal damage rating, Setaria: 7
  herbicidal damage rating, Sida: 7

## Cn1nc(C(F)(F)F)c(C(F)(Cl)S(=O)(=O)C2=NOC(C)(C)C2)c1OCC(F)(F)F (centres unmarked) [2.12]
[1]
  herbicidal action (damage rating 0-10), Amaranthus: 10
  herbicidal action (damage rating 0-10), Digitaria: 10
  herbicidal action (damage rating 0-10), Panicum: 10
  herbicidal action (damage rating 0-10), Setaria: 10
  herbicidal action (damage rating 0-10), Sida: 8
[2]
  herbicidal damage rating, Abutilon: 6
  herbicidal damage rating, Amaranthus: 0
  herbicidal damage rating, Digitaria: 6
  herbicidal damage rating, Panicum: 7
  herbicidal damage rating, Setaria: 7
  herbicidal damage rating, Sida: 6

## Cn1nc(C(F)(F)F)c(C(Cl)(Cl)S(=O)(=O)C2=NOC(C)(C)C2)c1OCC(F)(F)F [2.13]
[1]
  herbicidal action (damage rating 0-10), Amaranthus: 10
  herbicidal action (damage rating 0-10), Digitaria: 10
  herbicidal action (damage rating 0-10), Panicum: 10
  herbicidal action (damage rating 0-10), Setaria: 10
  herbicidal action (damage rating 0-10), Sida: 7
[2]
  herbicidal damage rating, Abutilon: 6
  herbicidal damage rating, Amaranthus: 7
  herbicidal damage rating, Digitaria: 5
  herbicidal damage rating, Panicum: 7
  herbicidal damage rating, Setaria: 8
  herbicidal damage rating, Sida: 7

## Cn1nc(C(F)(F)F)c(C(F)(Cl)S(=O)(=O)C2=NOC(C)(C)C2)c1OC(F)F (centres unmarked) [2.14]
[1]
  herbicidal action (damage rating 0-10), Amaranthus: 10
  herbicidal action (damage rating 0-10), Digitaria: 10
  herbicidal action (damage rating 0-10), Panicum: 10
  herbicidal action (damage rating 0-10), Setaria: 10
  herbicidal action (damage rating 0-10), Sida: 9
[2]
  herbicidal damage rating, Abutilon: 7
  herbicidal damage rating, Amaranthus: 8
  herbicidal damage rating, Digitaria: 7
  herbicidal damage rating, Panicum: 7
  herbicidal damage rating, Setaria: 4
  herbicidal damage rating, Sida: 7

## Cn1nc(C(F)(F)F)c(C(Cl)(Cl)S(=O)(=O)C2=NOC(C)(C)C2)c1OC(F)F [2.15]
[1]
  herbicidal action (damage rating 0-10), Amaranthus: 10
  herbicidal action (damage rating 0-10), Digitaria: 10
  herbicidal action (damage rating 0-10), Panicum: 10
  herbicidal action (damage rating 0-10), Setaria: 10
  herbicidal action (damage rating 0-10), Sida: 8
[2]
  herbicidal damage rating, Abutilon: 4
  herbicidal damage rating, Amaranthus: 0
  herbicidal damage rating, Digitaria: 6
  herbicidal damage rating, Panicum: 2
  herbicidal damage rating, Setaria: 4
  herbicidal damage rating, Sida: 4

## Cn1nc(C(F)(F)F)c(C(Cl)S(=O)(=O)C2=NOC(C)(C)C2)c1OC(F)F (centres unmarked) [2.16]
[1]
  herbicidal action (damage rating 0-10), Amaranthus: 10
  herbicidal action (damage rating 0-10), Digitaria: 10
  herbicidal action (damage rating 0-10), Panicum: 10
  herbicidal action (damage rating 0-10), Setaria: 10
  herbicidal action (damage rating 0-10), Sida: 7
[2]
  herbicidal damage rating, Abutilon: 7
  herbicidal damage rating, Amaranthus: 8
  herbicidal damage rating, Digitaria: 4
  herbicidal damage rating, Panicum: 0
  herbicidal damage rating, Setaria: 8
  herbicidal damage rating, Sida: 7

## CC1(C)CC(S(=O)(=O)C(Cl)c2cccnc2Cl)=NO1 (centres unmarked) [8.01]
[1]
  herbicidal action (damage rating 0-10), Amaranthus: 5
  herbicidal action (damage rating 0-10), Digitaria: 8
  herbicidal action (damage rating 0-10), Panicum: 8
  herbicidal action (damage rating 0-10), Setaria: 5
  herbicidal action (damage rating 0-10), Sida: 0
[2]
  herbicidal damage rating, Abutilon: 3
  herbicidal damage rating, Amaranthus: 0
  herbicidal damage rating, Digitaria: 0
  herbicidal damage rating, Panicum: 3
  herbicidal damage rating, Setaria: 0
  herbicidal damage rating, Sida: 3

## CC1(C)CC(S(=O)(=O)C(F)c2cccnc2Cl)=NO1 (centres unmarked) [8.02]
[1]
  herbicidal action (damage rating 0-10), Amaranthus: 7
  herbicidal action (damage rating 0-10), Digitaria: 9
  herbicidal action (damage rating 0-10), Panicum: 10
  herbicidal action (damage rating 0-10), Setaria: 8
  herbicidal action (damage rating 0-10), Sida: 0
[2]
  herbicidal damage rating, Abutilon: 2
  herbicidal damage rating, Amaranthus: 0
  herbicidal damage rating, Digitaria: 6
  herbicidal damage rating, Panicum: 3
  herbicidal damage rating, Setaria: 3
  herbicidal damage rating, Sida: 3

## CC1(C)CC(S(=O)(=O)C(F)(Cl)c2cccnc2Cl)=NO1 (centres unmarked) [8.03]
[1]
  herbicidal action (damage rating 0-10), Amaranthus: 8
  herbicidal action (damage rating 0-10), Digitaria: 10
  herbicidal action (damage rating 0-10), Panicum: 10
  herbicidal action (damage rating 0-10), Setaria: 8
  herbicidal action (damage rating 0-10), Sida: 6
[2]
  herbicidal damage rating, Abutilon: 4
  herbicidal damage rating, Amaranthus: 0
  herbicidal damage rating, Digitaria: 7
  herbicidal damage rating, Panicum: 6
  herbicidal damage rating, Setaria: 4
  herbicidal damage rating, Sida: 0

## CC1(C)CC(S(=O)(=O)C(F)(F)c2cccnc2Cl)=NO1 [8.04]
[1]
  herbicidal action (damage rating 0-10), Amaranthus: 10
  herbicidal action (damage rating 0-10), Digitaria: 10
  herbicidal action (damage rating 0-10), Panicum: 10
  herbicidal action (damage rating 0-10), Setaria: 10
  herbicidal action (damage rating 0-10), Sida: 3
[2]
  herbicidal damage rating, Abutilon: 3
  herbicidal damage rating, Panicum: 3
  herbicidal damage rating, Setaria: 2
  herbicidal damage rating, Sida: 0

From patent US8680290B2, “Isoxazoline derivatives and their use as herbicides” (Syngenta Limited, priority 2004, dated 2014)
